Earlier results as cited in patent US12533416B2, “Krill oil for solubilizing poorly water-soluble dietary supplements and pharmaceutically active agents” (ID CARE UG (haftungsbeschränkt), priority 2018, dated 2026).

Settings: Class 4 = low solubility

| BCS class (solubility / permeability) | Compound |
| --- | --- |
| BCS Class 4 | Nc1nc2c(ncn2COCCO)c(=O)[nH]1 [Aciclovir, aciclovir] |
| BCS Class 4 | CC[C@H]1OC(=O)[C@H](C)[C@@H](O[C@H]2C[C@@](C)(OC)[C@@H](O)[C@H](C)O2)[C@H](C)[C@@H](O[C@@H]2O[C@H](C)C[C@H](N(C)C)[C@H]2O)[C@](C)(O)C[C@@H](C)CN(C)[C@H](C)[C@@H](O)[C@]1(C)O [Azithromycin, azithromycin] |
